{"source": "patent EP0677522A1", "about": "“8-METHOXYQUINOLONECARBOXYLIC ACID DERIVATIVE” (priority 1992, dated 1994)", "type_in_all_cases": "cell-based", "key": {"[1]": {"test_system": "A.calcoaceticus IFO 13006", "assay": "In vitro antibacterial activity (MIC), Japan Society of Chemotherapy Standard", "settings": "Acinetobacter calcoaceticus, IFO13006; inoculated cells 10⁶ cells/ml", "protocol": "(§1) The in vitro antibacterial activity (minimum inhibitory concentration, MIC, µg/ml) of the test compounds was determined according to Japan Society of Chemotherapy Standard [Chemotherapy, vol. 29, pp 76-79 (1981)].\n(§2) Inoculated cells were 10⁶ cells/ml and the strain with * was incubated in a medium supplemented with 10% horse blood. The mark \"1)\" means quinolone resistant MRSA and \"2)\" means quinolone resistant bacteria."}, "[2]": {"test_system": "Citrobacter freundii IFO 12681", "assay": "In vitro antibacterial activity (MIC), Japan Society of Chemotherapy Standard", "settings": "IFO12681, inoculated cells 10⁶ cells/ml", "protocol": "as §1, §2"}, "[3]": {"test_system": "Corynebacterium diphtheriae Tronto", "assay": "In vitro antibacterial activity (MIC), Japan Society of Chemotherapy Standard", "settings": "inoculated cells 10⁶ cells/ml, medium supplemented with 10% horse blood", "protocol": "as §1, §2"}, "[4]": {"test_system": "E. faecalis EFY-204", "assay": "In vitro antibacterial activity (MIC), Japan Society of Chemotherapy Standard", "settings": "Enterococcus faecalis, EFY204; quinolone resistant bacteria; inoculated cells 10⁶ cells/ml", "protocol": "as §1, §2"}, "[5]": {"test_system": "E. faecium EFMY-207", "assay": "In vitro antibacterial activity (MIC), Japan Society of Chemotherapy Standard", "settings": "Enterococcus faecium, EFMY207; quinolone resistant bacteria; inoculated cells 10⁶ cells/ml", "protocol": "as §1, §2"}, "[6]": {"test_system": "E. faecium EFMY-28", "assay": "In vitro antibacterial activity (MIC), Japan Society of Chemotherapy Standard", "settings": "Enterococcus faecium, EFMY28; inoculated cells 10⁶ cells/ml", "protocol": "as §1, §2"}, "[7]": {"test_system": "Enterococcus faecalis LS-101", "assay": "In vitro antibacterial activity (MIC), Japan Society of Chemotherapy Standard", "settings": "LS101, inoculated cells 10⁶ cells/ml", "protocol": "as §1, §2"}, "[8]": {"test_system": "Escherichia coli NIHJ JC-2", "assay": "In vitro antibacterial activity (MIC), Japan Society of Chemotherapy Standard", "settings": "NIHJJC2, inoculated cells 10⁶ cells/ml", "protocol": "as §1, §2"}, "[9]": {"test_system": "K.pneumoniae DT-S", "assay": "In vitro antibacterial activity (MIC), Japan Society of Chemotherapy Standard", "settings": "Klebsiella pneumoniae; inoculated cells 10⁶ cells/ml", "protocol": "as §1, §2"}, "[10]": {"test_system": "Klebsiella pneumoniae DT", "assay": "In vitro antibacterial activity (MIC), Japan Society of Chemotherapy Standard", "settings": "inoculated cells 10⁶ cells/ml", "protocol": "as §1, §2"}, "[11]": {"test_system": "L.monocytogenes VTU-206", "assay": "In vitro antibacterial activity (MIC), Japan Society of Chemotherapy Standard", "settings": "Listeria monocytogenes, VTU206; inoculated cells 10⁶ cells/ml; medium supplemented with 10% horse blood", "protocol": "as §1, §2"}, "[12]": {"test_system": "P. mirabilis IFO 3849", "assay": "In vitro antibacterial activity (MIC), Japan Society of Chemotherapy Standard", "settings": "Proteus mirabilis, IFO3849; inoculated cells 10⁶ cells/ml", "protocol": "as §1, §2"}, "[13]": {"test_system": "P.aeruginosa U-31", "assay": "In vitro antibacterial activity (MIC), Japan Society of Chemotherapy Standard", "settings": "Pseudomonas aeruginosa, U31; inoculated cells 10⁶ cells/ml", "protocol": "as §1, §2"}, "[14]": {"test_system": "Proteus vulgaris IFO 3988", "assay": "In vitro antibacterial activity (MIC), Japan Society of Chemotherapy Standard", "settings": "IFO3988, inoculated cells 10⁶ cells/ml", "protocol": "as §1, §2"}, "[15]": {"test_system": "Pseudomonas aeruginosa IFO 12582", "assay": "In vitro antibacterial activity (MIC), Japan Society of Chemotherapy Standard", "settings": "IFO12582, inoculated cells 10⁶ cells/ml", "protocol": "as §1, §2"}, "[16]": {"test_system": "S. aureus No.88", "assay": "In vitro antibacterial activity (MIC), Japan Society of Chemotherapy Standard", "settings": "Staphylococcus aureus; quinolone resistant MRSA; inoculated cells 10⁶ cells/ml", "protocol": "as §1, §2"}, "[17]": {"test_system": "S. epidermidis ATCC 12228", "assay": "In vitro antibacterial activity (MIC), Japan Society of Chemotherapy Standard", "settings": "Staphylococcus epidermidis, ATCC12228; inoculated cells 10⁶ cells/ml", "protocol": "as §1, §2"}, "[18]": {"test_system": "S. epidermidis SEY-223", "assay": "In vitro antibacterial activity (MIC), Japan Society of Chemotherapy Standard", "settings": "Staphylococcus epidermidis, SEY223; quinolone resistant bacteria; inoculated cells 10⁶ cells/ml", "protocol": "as §1, §2"}, "[19]": {"test_system": "S. viridans America", "assay": "In vitro antibacterial activity (MIC), Japan Society of Chemotherapy Standard", "settings": "Streptococcus viridans; inoculated cells 10⁶ cells/ml; medium supplemented with 10% horse blood", "protocol": "as §1, §2"}, "[20]": {"test_system": "Serratia marcescens IFO 12648", "assay": "In vitro antibacterial activity (MIC), Japan Society of Chemotherapy Standard", "settings": "IFO12648, inoculated cells 10⁶ cells/ml", "protocol": "as §1, §2"}, "[21]": {"test_system": "Shigella flexneri EW-10", "assay": "In vitro antibacterial activity (MIC), Japan Society of Chemotherapy Standard", "settings": "EW10, inoculated cells 10⁶ cells/ml", "protocol": "as §1, §2"}, "[22]": {"test_system": "Staphylococcus aureus FDA 209P", "assay": "In vitro antibacterial activity (MIC), Japan Society of Chemotherapy Standard", "settings": "FDA209P, inoculated cells 10⁶ cells/ml", "protocol": "as §1, §2"}, "[23]": {"test_system": "B. fragilis BFY-18", "assay": "Antibacterial effect against specific bacteria (MIC)", "settings": "Bacteroides fragilis, BFY18; same manner as Experimental Example 1", "protocol": "as §1\n(§3) In the same manner as in Experimental Example 1, the antibacterial effect against specific bacteria such as Chlamydia, Mycoplasma and acid-fast bacteria and anaerobic bacteria was determined."}, "[24]": {"test_system": "Bacteroides fragilis GAI 5560", "assay": "Antibacterial effect against specific bacteria (MIC)", "settings": "GAI5560, same manner as Experimental Example 1", "protocol": "as §1, §3"}, "[25]": {"test_system": "Chlamydia trachomatis D/UW-3Cx", "assay": "Antibacterial effect against specific bacteria (MIC)", "settings": "same manner as Experimental Example 1", "protocol": "as §1, §3"}, "[26]": {"test_system": "Mycobacterium smegmatis IFO 13167", "assay": "Antibacterial effect against specific bacteria (MIC)", "settings": "Mycolicibacterium smegmatis, IFO13167; same manner as Experimental Example 1", "protocol": "as §1, §3"}, "[27]": {"test_system": "Mycobacterium smegmatis IFO 3153", "assay": "Antibacterial effect against specific bacteria (MIC)", "settings": "Mycolicibacterium smegmatis, IFO3153; same manner as Experimental Example 1", "protocol": "as §1, §3"}, "[28]": {"test_system": "Mycoplasma pneumoniae ATCC 29343", "assay": "Antibacterial effect against specific bacteria (MIC)", "settings": "ATCC29343, same manner as Experimental Example 1", "protocol": "as §1, §3"}, "[29]": {"test_system": "Ureaplasma urealyticum ATCC 27618", "assay": "Antibacterial effect against specific bacteria (MIC)", "settings": "ATCC27618, same manner as Experimental Example 1", "protocol": "as §1, §3"}, "[30]": {"test_system": "E. coli KC-14", "assay": "MIC of the infectious bacteria used for experimental infection", "settings": "Escherichia coli, KC14; infectious strain of the mouse protection test", "protocol": "as §1\n(§4) Experimental infection was caused by intraperitoneal inoculation of respective bacteria to male mice. One hour after the inoculation, a test compound was orally administered to the mice. The therapeutic effect of each test compound was evaluated by reference to the 50% effective dose (ED₅₀) which was based on the survival ratio at 7 days after the administration according to the probit method [Proc. Soc. Exp. Med., Vol. 57, p 261-264 (1944)]. The minimum inhibitory concentration (MIC) of the infectious bacteria used was also determined. […]"}, "[31]": {"test_system": "S. aureus MRSA Y-238", "assay": "MIC of the infectious bacteria used for experimental infection", "settings": "Staphylococcus aureus, infectious strain of the mouse protection test", "protocol": "as §1, §4"}, "[32]": {"test_system": "S. aureus Smith", "assay": "MIC of the infectious bacteria used for experimental infection", "settings": "Staphylococcus aureus; infectious strain of the mouse protection test", "protocol": "as §1, §4"}}}
{"smiles": "CC1COc2c(N3CCN(C)CC3)c(F)cc3c(=O)c(C(=O)O)cn1c23", "note": "(centres unmarked) [Comp. Ex. 2, 9-fluoro-2,3-dihydro-3-methyl-10-(4-methyl-1-piperazinyl)-7-oxo-7H-pyrido [1. 2. 3-de) [1.4] benzoxazine-6-carboxylic acid, reference compound]", "values": [{"measurement": "MIC", "setting": "[1]", "value": 0.2, "unit": "µg/mL"}, {"measurement": "MIC", "setting": "[2]", "value": 0.1, "unit": "µg/mL"}, {"measurement": "MIC", "setting": "[3]", "value": 0.39, "unit": "µg/mL"}, {"measurement": "MIC", "setting": "[4]", "value": 50, "unit": "µg/mL"}, {"measurement": "MIC", "setting": "[5]", "value": 100, "unit": "µg/mL"}, {"measurement": "MIC", "setting": "[6]", "value": 3.13, "unit": "µg/mL"}, {"measurement": "MIC", "setting": "[7]", "value": 0.39, "unit": "µg/mL"}, {"measurement": "MIC", "setting": "[8]", "value": 0.05, "unit": "µg/mL"}, {"measurement": "MIC", "setting": "[9]", "value": 0.05, "unit": "µg/mL"}, {"measurement": "MIC", "setting": "[10]", "value": 0.1, "unit": "µg/mL"}, {"measurement": "MIC", "setting": "[11]", "value": 3.13, "unit": "µg/mL"}, {"measurement": "MIC", "setting": "[12]", "value": 0.39, "unit": "µg/mL"}, {"measurement": "MIC", "setting": "[13]", "value": 1.56, "unit": "µg/mL"}, {"measurement": "MIC", "setting": "[14]", "value": 0.1, "unit": "µg/mL"}, {"measurement": "MIC", "setting": "[15]", "value": 1.56, "unit": "µg/mL"}, {"measurement": "MIC", "setting": "[16]", "value": 50, "unit": "µg/mL"}, {"measurement": "MIC", "setting": "[17]", "value": 0.2, "unit": "µg/mL"}, {"measurement": "MIC", "setting": "[18]", "value": "> 100", "unit": "µg/mL"}, {"measurement": "MIC", "setting": "[19]", "value": 3.13, "unit": "µg/mL"}, {"measurement": "MIC", "setting": "[20]", "value": 0.2, "unit": "µg/mL"}, {"measurement": "MIC", "setting": "[21]", "value": 0.05, "unit": "µg/mL"}, {"measurement": "MIC", "setting": "[22]", "value": 0.2, "unit": "µg/mL"}, {"measurement": "MIC", "setting": "[23]", "value": 1.56, "unit": "µg/mL"}, {"measurement": "MIC", "setting": "[24]", "value": 1.56, "unit": "µg/mL"}, {"measurement": "MIC", "setting": "[25]", "value": 0.39, "unit": "µg/mL"}, {"measurement": "MIC", "setting": "[26]", "value": 0.39, "unit": "µg/mL"}, {"measurement": "MIC", "setting": "[27]", "value": 0.39, "unit": "µg/mL"}, {"measurement": "MIC", "setting": "[28]", "value": 1.56, "unit": "µg/mL"}, {"measurement": "MIC", "setting": "[29]", "value": 3.13, "unit": "µg/mL"}, {"measurement": "MIC", "setting": "[30]", "value": 0.05, "unit": "µg/mL"}, {"measurement": "MIC", "setting": "[31]", "value": "> 100", "unit": "µg/mL"}, {"measurement": "MIC", "setting": "[32]", "value": 0.05, "unit": "µg/mL"}]}
